Structures are written as SMILES.

One assay deals with U-251. Kind of assay: Cytotoxicity against human U251 cells assessed as decrease in cell proliferation after 72 hrs by SRB assay. In kind it is functional, cell-based. The note with it: U-251, 72 h.
Assay [1] in a line: Cytotoxicity against human IN1528 cells assessed as decrease in cell proliferation after 72 hrs by SRB assay. Particulars: IN1528, 72 h. In kind it is functional, cell-based. Background: Sulforhodamine B stains cellular protein and so reports cell mass.
Assay [2] can be described thus: Cytotoxicity against human IN1760 cells assessed as decrease in cell proliferation after 72 hrs by SRB assay. The assay is classed as functional, cell-based. Particulars: IN1760, 72 h.
A short description of assay [3]: Cytotoxicity against human U87 cells assessed as decrease in cell proliferation after 72 hrs by SRB assay. The assay is classed as functional, cell-based, U-87MG ATCC. Particulars: U-87 MG.
The nature of assay [4]: Cytotoxicity against human IN1472 cells assessed as decrease in cell proliferation after 72 hrs by SRB assay. The assay is classed as functional, cell-based. Particulars: IN1472, 72 h.

On to `CC(=O)n1cc(CO)c2ccccc21`, for which the EC50 with U-251 is 1760 µM; in assay [1], 5820 µM; in assay [2], greater than 10000 µM.
In the case of `CC(=O)n1c(-c2ccccc2)c(CO)c2ccccc21`, the figures for the EC50 (in the assay on U-251; in assay [1]; in assay [2]) were 600 µM, greater than 10000 µM and greater than 10000 µM, respectively.
Consider `Cc1ccc(S(=O)(=O)n2cc(CO)c3ccccc32)cc1`, for which the EC50 in the assay on U-251 amounted to 140 µM; in assay [1] it was 440 µM; in assay [2] it was 650 µM.
`OCc1csc2ccccc12`: the EC50 with U-251 was 1240 µM; in assay [1], 3990 µM; in assay [2], 1080 µM.
In the case of `c1ccc(-c2[nH]c3ccccc3c2Cc2c(-c3ccccc3)[nH]c3ccccc23)cc1`, the EC50 in the assay on U-251 was 50 µM; in assay [1], 270 µM; in assay [2], 50 µM.
Consider `OCCc1c(-c2ccccc2)[nH]c2ccccc12`, for which the EC50 in assay [3] is 110 µM; in the assay on U-251, 250 µM; in assay [4], 350 µM; in assay [1] it was 4 µM; in assay [2], 330 µM.
On to `OCc1c(-c2ccccc2)[nH]c2ccccc12` [(2-PHENYL-1H-INDOL-3-YL)METHANOL], for which the EC50 amounted to 30 µM in assay [3]; 130 µM in the assay with U-251; 480 µM in assay [4]; 10 µM in assay [1]; 1430 µM in assay [2].
On to `c1ccc2c(Cc3c[nH]c4ccccc34)c[nH]c2c1` [ARUNDINE], for which the EC50 in the assay with U-251 was 280 µM; in assay [1] it was 440 µM; in assay [2] it was 230 µM.
Regarding `OCc1c[nH]c2ccccc12` [INDOLE-3-CARBINOL], the EC50 in assay [3] turned out to be 290 µM; in the assay with U-251, 390 µM; in assay [4] it was 950 µM; in assay [1], 119 µM; in assay [2], 1580 µM.
Turning to `OCCc1c[nH]c2ccccc12` [TRYPTOPHOL], the EC50 in assay [3] came to 580 µM; in the assay with U-251 it was 1220 µM; in assay [4], 1950 µM; in assay [1] it was 1740 µM; in assay [2] it was 4570 µM.

Usually EC50 stands for the concentration needed to bring the measured effect to its halfway point.

These data come from ChEMBL document CHEMBL4004876, “Preliminary SAR on indole-3-carbinol and related fragments reveals a novel anticancer lead compound against resistant glioblastoma cells” (Bioorg Med Chem Lett, 2017).
